Test results reported in patent US8288375B2, “Fungicidal bicyclic pyrazoles” (E.I. du Pont de Nemours and Company, priority 2007, dated 2012).

Columns and labels:
Assay type in all cases: in vivo
[1] = test system: Erysiphe graminis f. sp. tritici; assay: Test A: wheat powdery mildew, test suspension sprayed on wheat seedlings, disease rating; conditions: 200 ppm test suspension; 100 = 100% disease control, 0 = no control
[2] = test system: Puccinia recondite f sp. tritici; assay: Test B: wheat leaf rust, test suspension sprayed on wheat seedlings, disease rating; conditions: 200 ppm test suspension;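 also: 200 ppm unless marked * meaning 40 ppm or ** meaning 10 ppm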
Fusarium graminearum = assay: whole plant or invertebrate; conditions: 200 ppm test suspension
Septoria nodorum = assay: Test D: wheat glume blotch, test suspension sprayed on wheat seedlings, disease rating; conditions: 200 ppm test suspension
Septoria tritici = assay: Test E: wheat leaf blotch, test suspension sprayed on wheat seedlings, disease rating; conditions: 200 ppm test suspension;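 also: 200 ppm unless marked * meaning 40 ppm or ** meaning 10 ppm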
[3] = test system: Colletotrichum orbiculare; assay: Test F: cucumber Colletotrichum anthracnose, test suspension sprayed on cucumber seedlings, disease rating; conditions: 200 ppm test suspension
Botrytis cinerea = assay: Test H: tomato Botrytis, test suspension sprayed on tomato seedlings, disease rating; conditions: 200 ppm test suspension
Rhizoctonia oryzae = assay: Test I: turf brown patch, test suspension sprayed on creeping bent grass seedlings, disease rating; conditions: 200 ppm test suspension
Phytophthora infestans = assay: whole plant or invertebrate; conditions: 200 ppm test suspension
Plasmopara viticola = assay: Test K: grape downy mildew, grape seedlings inoculated and then sprayed, disease rating; conditions: 200 ppm test suspension
Pythium aphanidermatum = assay: Test L: bluegrass pythium blight, test suspension sprayed on bluegrass seedlings, disease rating; conditions: 200 ppm test suspension;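 also: 200 ppm unless marked * meaning 40 ppm or ** meaning 10 ppm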

Structure (SMILES)	Test A disease control rating [1]	Test B disease control rating [2]	Test C disease control rating (Fusarium graminearum)	Test D disease control rating (Septoria nodorum)	Test E disease control rating (Septoria tritici)	Test F disease control rating [3]	Test H disease control rating (Botrytis cinerea)	Test I disease control rating (Rhizoctonia oryzae)	Test J disease control rating (Phytophthora infestans)	Test K disease control rating (Plasmopara viticola)	Test L disease control rating (Pythium aphanidermatum)
CC(C)(C)CNc1nccc(-c2c(-c3ccc(F)cc3)nn3c2CCCC3)n1 [compound 3]	47%	91%	99%	0%	72%	0%	0%	0%	0%	0%	0%
CNc1nccc(-c2c(-c3ccc(F)cc3)nn3c2CCCC3)n1 [compound 13]	98%	99%	100%	97%	–	31%	29%	77%	97%	0%	100%
C=CCNc1nccc(-c2c(-c3ccc(F)cc3)nn3c2CCCC3)n1 [compound 15]	86%	99%	100%	98%	–	17%	92%	0%	97%	0%	100%
NCCNc1nccc(-c2c(-c3ccc(F)cc3)nn3c2CCCC3)n1 [compound 16]	20%	99%	99%	0%	–	0%	19%	0%	91%	0%	70%
C#CCNc1nccc(-c2c(-c3ccc(F)cc3)nn3c2CCCC3)n1 [compound 17]	64%	99%	100%	98%	–	77%	97%	0%	100%	86%	100%
CCNc1nccc(-c2c(-c3ccc(F)cc3)nn3c2CCCC3)n1 [compound 18]	96%	100%	100%	97%	–	98%	74%	0%	99%	0%	100%
CCC(C)Nc1nccc(-c2c(-c3ccc(F)cc3)nn3c2CCCC3)n1 (centres unmarked) [compound 19]	26%	99%	100%	98%	–	66%	74%	0%	31%	0%	93%
CCC(C)Nc1nccc(-c2c(-c3ccc(F)cc3)nn3c2CCCC3)n1 (centres unmarked) [compound 20]	78%	99%	100%	99%	–	88%	96%	0%	99%	0%	100%
COCC(C)Nc1nccc(-c2c(-c3ccc(F)cc3)nn3c2CCC3)n1 (centres unmarked) [compound 84]	60%	99%	100%	99%	–	98%	52%	16%	93%	0%	100%
CCC(C)Nc1nccc(-c2c(-c3ccc(F)cc3)nn3c2CCC3)n1 (centres unmarked) [compound 85]	0%	99%	100%	82%	–	88%	52%	16%	67%	0%	100%
CNc1nccc(-c2c(-c3ccc(F)cc3)nn3c2CCC3)n1 [compound 90]	96%	99%	100%	100%	–	17%	0%	0%	99%	0%	97%
CC(C)Nc1nccc(-c2c(-c3ccc(F)cc3)nn3c2CCC3)n1 [compound 91]	74%	99%	100%	98%	–	16%	99%	0%	0%	0%	88%
Fc1ccc(-c2nn3c(c2-c2ccnc(NC4CC4)n2)CCC3)cc1 [compound 92]	94%	99%	100%	99%	–	80%	90%	0%	99%	0%	99%
COc1ccc(-c2nn3c(c2-c2ccnc(NC4CC4)n2)CCC3)cc1 [compound 93]	0%	0%	99%	0%	–	0%	0%	0%	95%	0%	90%
Fc1ccc(-c2nn3c(c2-c2ccnc(NC4CC4)n2)CCC3)c(F)c1 [compound 94]	82%	97%	100%	98%	–	24%	96%	16%	99%	0%	99%
C=CCNc1nccc(-c2c(-c3ccc(F)cc3)nn3c2CCC3)n1 [compound 95]	68%	100%	100%	99%	–	21%	87%	0%	99%	0%	95%
